Active and inactive are the calls of the source. The rule behind the calls is not given here.

Drawing on ChEMBL document CHEMBL1143332, “Syntheses of tricyclic pyrones and pyridinones and protection of Abeta-peptide induced MC65 neuronal cell death” (Bioorg Med Chem Lett, 2009), this text covers EC50 and Activity for 15 compounds.

Assay [1] is described as follows: (§1) Cell protective activity in human MC65 cells assessed as protection against amyloid beta precursor protein C99-induced neuronal cell death after 3 days by MTT assay. It is filed as functional, cell-based. As to conditions: 72 h.
In assay [2] the test system is neuronal. Described as §1. In kind it is functional, cell-based.

With `Cc1cc2c(c(=O)o1)C=C1CC[C@H]([C@@H](C)Cn3cc(C#N)c(N)n3)C[C@@H]1O2`, in assay [1], the EC50 stood at 8300 nM.
Same read-out and setting: the result for `Cc1cc2c(c(=O)o1)C=C1CC[C@H]([C@@H](C)Cn3cnc4c(N)ncnc43)C[C@@H]1O2` reads 3000 nM; that for `Cc1cc2c(c(=O)o1)C=C1CC[C@H]([C@@H](C)Cn3cnc(N)c4ncnc3-4)C[C@@H]1O2`, 310 nM; that for `C=C(C)[C@H]1CCC2=Cc3c(cc(C)n(Cc4ccc(OC)cc4)c3=O)O[C@H]2C1`, 1250 nM.
As to `CC(=O)Nc1nc2c(ncn2C[C@H](C)[C@H]2CCC3=Cc4c(cc(C)oc4=O)O[C@H]3C2)c(=O)[nH]1`, the result in assay [2] was inactive.
`C=C(C)[C@@H]1CCc2cnc3cc(C)oc(=O)c3c2C1`: the EC50 in assay [1] is 2490 nM.
As to `C=C(C)[C@H]1CCc2cc3c(=O)oc(C)cc3nc2C1`, the result in assay [2] was inactive.
As for `Cc1cc2c(c(=O)o1)C=C1CC[C@H]([C@@H](C)Cn3ccc(N)nc3=O)C[C@@H]1O2`, the outcome in assay [2] was inactive.
`Cc1cc2c(c(=O)o1)C=C1CC[C@H]([C@@H](C)CSc3ncccn3)C[C@@H]1O2`: the EC50 in assay [1] was determined as 1380 nM.
The same measure, in the same setting: for `COc1ccc(Cn2c(C)cc3c(c2=O)C=C2CC[C@H]([C@@H](C)Cn4cnc(N)c5ncnc4-5)C[C@@H]2O3)cc1` the value was 350 nM; for `Cc1cc2c(c(=O)o1)C=C1CC[C@H]([C@@H](C)COc3nccc(N)n3)C[C@@H]1O2`, 2940 nM; for `Cc1cc2c(c(=O)o1)C=C1CC[C@H]([C@@H](C)Cn3cc(C)c(=O)[nH]c3=O)C[C@@H]1O2`, 6920 nM.
Turning to `Cc1cc2c(c(=O)o1)C=C1CC[C@H]([C@@H](C)Cn3cnc4cnc(N)nc43)C[C@@H]1O2`, the EC50 in assay [1] worked out at 860 nM.
Consider `C=C(Cn1cnc(N)c2ncnc1-2)[C@H]1CCC2=Cc3c(cc(C)oc3=O)O[C@H]2C1`, for which the EC50 in assay [1] was 1950 nM.
On the same count and under the same terms, for `Cc1cc2c(c(=O)o1)C=C1CC[C@H]([C@@H](C)Cn3cnc4c(Cl)ncnc43)C[C@@H]1O2` the value was 930 nM.

As a reminder, the EC50 is the concentration needed to bring the measured effect to its halfway point.
